# Data reported in patent publication US10202361B2, “Pyridazinones as herbicides” (E I DU PONT DE NEMOURS AND COMPANY, priority 2014, dated 2019).
# Like-named read-outs stand apart in the source and are kept apart here.
# What was measured:
# Assay in all cases: Test C pre-/postemergence greenhouse herbicide test
# Assay type in all cases: in vivo
# [1] = tested on: pigweed (Amaranthus retroflexus); settings: Amaranthus retroflexus, Pigweed, read-out: Plant response rating; for pest or weed control at 31 g/ha: 31 g ai/ha; for pest or weed control at 62 g/ha: 62 g ai/ha; for pest or weed control at 125 g/ha: 125 g ai/ha; for pest or weed control at 250 g/ha: 250 g ai/ha
# How it was run: (§1)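 Seeds sown in loam soil–sand blend were treated preemergence; plants at 2 to 18 cm (1- to 4-leaf stage) in peat-based medium were treated postemergence. Test chemicals were formulated in a non-phytotoxic solvent mixture with surfactant. After 13 to 15 d in greenhouse, injury was rated visually versus controls, 0 (no effect) to 100 (complete control).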
# [2] = tested on: ragweed (common ragweed, Ambrosia elatior); settings: Ambrosia artemisiifolia, Ragweed, read-out: Plant response rating; for pest or weed control at 31 g/ha: 31 g ai/ha; for pest or weed control at 62 g/ha: 62 g ai/ha; for pest or weed control at 125 g/ha: 125 g ai/ha; for pest or weed control at 250 g/ha: 250 g ai/ha
# How it was run: as §1
# [3] = tested on: blackgrass (Alopecurus myosuroides); settings: Alopecurus myosuroides, Blackgrass, read-out: Plant response rating; for pest or weed control at 31 g/ha: 31 g ai/ha; for pest or weed control at 62 g/ha: 62 g ai/ha; for pest or weed control at 125 g/ha: 125 g ai/ha; for pest or weed control at 250 g/ha: 250 g ai/ha
# How it was run: as §1
# [4] = tested on: wheat (winter wheat, Triticum aestivum); settings: Triticum aestivum, Wheat, read-out: Plant response rating; for plant injury at 62 g/ha: 62 g ai/ha; for plant injury at 125 g/ha: 125 g ai/ha; for plant injury at 250 g/ha: 250 g ai/ha
# How it was run: as §1
# [5] = tested on: corn (Zea mays); settings: Zea mays, Corn, read-out: Plant response rating; for plant injury at 31 g/ha: 31 g ai/ha; for plant injury at 62 g/ha: 62 g ai/ha; for plant injury at 125 g/ha: 125 g ai/ha; for plant injury at 250 g/ha: 250 g ai/ha
# How it was run: as §1
# [6] = tested on: waterhemp (common waterhemp, Amaranthus rudis); settings: Waterhemp
# How it was run: as §1
# [7] = tested on: lambsquarters (Chenopodium album)
# How it was run: as §1
# [8] = tested on: barnyardgrass (Echinochloa crus-galli); settings: Barnyardgrass
# How it was run: as §1
# [9] = tested on: oat, wild (wild oat, Avena fatua); settings: Postemergence
# How it was run: as §1
# [10] = tested on: nutsedge, yellow (yellow nutsedge, Cyperus esculentus); settings: Cyperus, Nutsedge, Yellow, read-out: Plant response rating; for pest or weed control at 31 g/ha: 31 g ai/ha; for pest or weed control at 62 g/ha: 62 g ai/ha; for pest or weed control at 125 g/ha: 125 g ai/ha; for pest or weed control at 250 g/ha: 250 g ai/ha
# How it was run: as §1
# [11] = tested on: johnsongrass (Sorghum halepense); settings: Sorghum halepense, Johnsongrass, read-out: Plant response rating; for pest or weed control at 31 g/ha: 31 g ai/ha; for pest or weed control at 62 g/ha: 62 g ai/ha; for pest or weed control at 125 g/ha: 125 g ai/ha; for pest or weed control at 250 g/ha: 250 g ai/ha
# How it was run: as §1
# [12] = tested on: crabgrass, Large (large crabgrass, Digitaria sanguinalis); settings: Digitaria sanguinalis, Crabgrass, Large, read-out: Plant response rating; for pest or weed control at 31 g/ha: 31 g ai/ha; for pest or weed control at 62 g/ha: 62 g ai/ha; for pest or weed control at 125 g/ha: 125 g ai/ha; for pest or weed control at 250 g/ha: 250 g ai/ha
# How it was run: as §1
compound,measurement,setting,value
"Cc1cc(=O)n(-c2ccc(F)cc2)nc1Cc1ccnc(C(F)(F)F)c1 [Compound 1, 2-(4-fluorophenyl)-5-methyl-6-[[2-(trifluoromethyl)-4-pyridinyl]methyl]-3(2H)-pyridazinone]",pest or weed control at 31 g/ha,"[1]; post-emergence, Postemergence",35%
same,pest or weed control at 62 g/ha,"[1]; post-emergence, Postemergence",55%
same,pest or weed control at 125 g/ha,"[1]; post-emergence, Postemergence",65%
same,pest or weed control at 250 g/ha,"[1]; post-emergence, Postemergence",85%
same,pest or weed control at 31 g/ha,"[1]; pre-emergence, Preemergence",100%
same,pest or weed control at 62 g/ha,"[1]; pre-emergence, Preemergence",100%
same,pest or weed control at 125 g/ha,"[1]; pre-emergence, Preemergence",100%
same,pest or weed control at 250 g/ha,"[1]; pre-emergence, Preemergence",100%
same,pest or weed control at 31 g/ha,"[2]; post-emergence, Postemergence",30%
same,pest or weed control at 62 g/ha,"[2]; post-emergence, Postemergence",50%
same,pest or weed control at 125 g/ha,"[2]; post-emergence, Postemergence",50%
same,pest or weed control at 250 g/ha,"[2]; post-emergence, Postemergence",60%
same,pest or weed control at 31 g/ha,"[2]; pre-emergence, Preemergence",25%
same,pest or weed control at 62 g/ha,"[2]; pre-emergence, Preemergence",35%
same,pest or weed control at 125 g/ha,"[2]; pre-emergence, Preemergence",70%
same,pest or weed control at 250 g/ha,"[2]; pre-emergence, Preemergence",100%
same,pest or weed control at 31 g/ha,"[3]; post-emergence, Postemergence",5%
same,pest or weed control at 62 g/ha,"[3]; post-emergence, Postemergence",5%
same,pest or weed control at 125 g/ha,"[3]; post-emergence, Postemergence",5%
same,pest or weed control at 250 g/ha,"[3]; post-emergence, Postemergence",5%
same,pest or weed control at 31 g/ha,"[3]; pre-emergence, Preemergence",30%
same,pest or weed control at 62 g/ha,"[3]; pre-emergence, Preemergence",30%
same,pest or weed control at 125 g/ha,"[3]; pre-emergence, Preemergence",90%
same,pest or weed control at 250 g/ha,"[3]; pre-emergence, Preemergence",90%
same,plant injury at 31 g/ha,"[4]; post-emergence, Postemergence, 31 g ai/ha",0%
same,plant injury at 62 g/ha,"[4]; post-emergence, Postemergence",5%
same,plant injury at 125 g/ha,"[4]; post-emergence, Postemergence",5%
same,plant injury at 250 g/ha,"[4]; post-emergence, Postemergence",5%
same,plant injury at 62 g/ha,"[4]; pre-emergence, Preemergence",5%
same,plant injury at 125 g/ha,"[4]; pre-emergence, Preemergence",15%
same,plant injury at 250 g/ha,"[4]; pre-emergence, Preemergence",70%
same,plant injury at 31 g/ha,"[5]; post-emergence, Postemergence",5%
same,plant injury at 62 g/ha,"[5]; post-emergence, Postemergence",5%
same,plant injury at 125 g/ha,"[5]; post-emergence, Postemergence",5%
same,plant injury at 250 g/ha,"[5]; post-emergence, Postemergence",10%
same,plant injury at 31 g/ha,"[5]; pre-emergence, Preemergence",15%
same,plant injury at 62 g/ha,"[5]; pre-emergence, Preemergence",50%
same,plant injury at 125 g/ha,"[5]; pre-emergence, Preemergence",90%
same,plant injury at 250 g/ha,"[5]; pre-emergence, Preemergence",95%
same,Plant response rating,"[6]; Postemergence, 31 g ai/ha",50
same,Plant response rating,"[6]; Postemergence, 62 g ai/ha",50
same,Plant response rating,"[6]; Postemergence, 125 g ai/ha",65
same,Plant response rating,"[6]; Postemergence, 250 g ai/ha",65
same,Plant response rating,"[6]; Preemergence, 62 g ai/ha",100
same,Plant response rating,"[6]; Preemergence, 125 g ai/ha",100
same,Plant response rating,"[6]; Preemergence, 250 g ai/ha",100
same,Plant response rating,"[7]; Postemergence, 31 g ai/ha",60
same,Plant response rating,"[7]; Postemergence, 125 g ai/ha",65
same,Plant response rating,"[7]; Postemergence, 250 g ai/ha",75
same,Plant response rating,"[7]; Preemergence, 31 g ai/ha",100
same,Plant response rating,"[7]; Preemergence, 62 g ai/ha",100
same,Plant response rating,"[7]; Preemergence, 125 g ai/ha",100
same,Plant response rating,"[7]; Preemergence, 250 g ai/ha",100
same,Plant response rating,"[8]; Postemergence, 31 g ai/ha",10
same,Plant response rating,"[8]; Postemergence, 62 g ai/ha",10
same,Plant response rating,"[8]; Postemergence, 125 g ai/ha",10
same,Plant response rating,"[8]; Postemergence, 250 g ai/ha",10
same,Plant response rating,"[8]; Preemergence, 31 g ai/ha",35
same,Plant response rating,"[8]; Preemergence, 62 g ai/ha",85
same,Plant response rating,"[8]; Preemergence, 125 g ai/ha",100
same,Plant response rating,"[8]; Preemergence, 250 g ai/ha",100
same,Plant response rating,[9]; 31 g ai/ha,5
same,Plant response rating,[9]; 62 g ai/ha,5
same,Plant response rating,[9]; 125 g ai/ha,5
same,Plant response rating,[9]; 250 g ai/ha,5
same,pest or weed control at 31 g/ha,"[10]; post-emergence, Postemergence",0%
same,pest or weed control at 62 g/ha,"[10]; post-emergence, Postemergence",5%
same,pest or weed control at 125 g/ha,"[10]; post-emergence, Postemergence",5%
same,pest or weed control at 250 g/ha,"[10]; post-emergence, Postemergence",5%
same,pest or weed control at 31 g/ha,"[10]; pre-emergence, Preemergence",10%
same,pest or weed control at 62 g/ha,"[10]; pre-emergence, Preemergence",30%
same,pest or weed control at 125 g/ha,"[10]; pre-emergence, Preemergence",50%
same,pest or weed control at 250 g/ha,"[10]; pre-emergence, Preemergence",55%
same,pest or weed control at 31 g/ha,"[11]; post-emergence, Postemergence",5%
same,pest or weed control at 62 g/ha,"[11]; post-emergence, Postemergence",5%
same,pest or weed control at 125 g/ha,"[11]; post-emergence, Postemergence",5%
same,pest or weed control at 250 g/ha,"[11]; post-emergence, Postemergence",5%
same,pest or weed control at 31 g/ha,"[11]; pre-emergence, Preemergence",35%
same,pest or weed control at 62 g/ha,"[11]; pre-emergence, Preemergence",60%
same,pest or weed control at 125 g/ha,"[11]; pre-emergence, Preemergence",85%
same,pest or weed control at 250 g/ha,"[11]; pre-emergence, Preemergence",100%
same,pest or weed control at 31 g/ha,"[12]; post-emergence, Postemergence",5%
same,pest or weed control at 62 g/ha,"[12]; post-emergence, Postemergence",5%
same,pest or weed control at 125 g/ha,"[12]; post-emergence, Postemergence",10%
same,pest or weed control at 250 g/ha,"[12]; post-emergence, Postemergence",20%
same,pest or weed control at 31 g/ha,"[12]; pre-emergence, Preemergence",100%
same,pest or weed control at 62 g/ha,"[12]; pre-emergence, Preemergence",100%
same,pest or weed control at 125 g/ha,"[12]; pre-emergence, Preemergence",100%
same,pest or weed control at 250 g/ha,"[12]; pre-emergence, Preemergence",100%
